Assay results: US20230390384A1 (priority 2020, published 2023)
“Also recorded” adds a separate entry of the source.

System: RBD, a South African mutant antigen of COVID-19
Set-up: species or system SARS-CoV-2
Conditions: in vivo

Q: Which “antigen-specific antibody titer (RBD South African mutant)” value does the source give for FSL-1 here?
A: higher antibody titer; also recorded: highest antibody titer

Q: How did the “antigen-specific antibody titer (RBD South African mutant)” value turn out when “N-palmitoyl-S-[2,3-bis(palmitoyloxy)-(2RS)-propyl]-[R]-cystein-SKKKK [Pam3CSK4]” was run?
A: higher antibody titer; also recorded: highest antibody titer
